Source: patent US6710047B2, “Phthalazines with angiogenesis inhibiting activity” (Novartis AG, priority 1997, dated 2004)
Where a name gives a salt, the structure may show the parent alone. Read-outs that look alike come from different tables or passages of the source.

Key:
[1] = target: T1, Flt-1 VEGF-receptor tyrosine kinase (Homo sapiens, UniProt P17948); assay: Test for activity against Flt-1 VEGF-receptor tyrosine kinase
T1 sequence (P17948 827-1158 limits assumed): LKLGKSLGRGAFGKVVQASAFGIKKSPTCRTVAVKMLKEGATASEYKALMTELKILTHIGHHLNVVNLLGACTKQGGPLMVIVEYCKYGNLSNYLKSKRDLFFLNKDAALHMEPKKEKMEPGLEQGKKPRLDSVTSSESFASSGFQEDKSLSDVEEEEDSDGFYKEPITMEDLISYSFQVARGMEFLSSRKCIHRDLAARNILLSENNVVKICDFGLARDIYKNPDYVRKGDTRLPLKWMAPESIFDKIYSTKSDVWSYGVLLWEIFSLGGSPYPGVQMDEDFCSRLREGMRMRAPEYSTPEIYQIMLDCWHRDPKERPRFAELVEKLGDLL
Description: Test for activity against VEGF-receptor tyrosine kinase. The test is conducted using Flt-1 VEGF-receptor tyrosine kinase. […] The reaction is then ended by the addition of 10 μl 0.25 M ethylenediaminetetraacetate (EDTA) pH 7. Using a multichannel dispenser (LAB SYSTEMS, USA), an aliquot of 20 μl is applied to a PVDF (=polyvinyl difluoride) Immobilon P membrane (Millipore, USA), incorporating a Millipore microtiter filter manifold, and connected to a vacuum.
The test is conducted using Flt-1 VEGF-receptor tyrosine kinase, as described hereinabove.

[2] = kinase domain of Flt-1, poly(Glu,Tyr) 4:1, 8 μM [33P]-ATP, 15 minutes at room temperature

SMILES | melting point | IC50 [1, 2] | IC50 [1]
COc1cccc(Nc2nnc(Cc3ccncc3)c3ccccc23)c1 | 118 to 120 °C | – | –
C[C@@H](Nc1nnc(Cc2ccncc2)c2ccccc12)c1ccccc1.Cl.Cl | 190 °C (dec.) | – | –
Oc1cccc(Nc2nnc(Cc3ccncc3)c3ccccc23)c1 | 217 to 219 °C | – | –
CC(=O)Nc1ccc2c(Cc3ccncc3)nnc(Nc3ccc(Cl)cc3)c2c1.Cl | 260 to 265 °C | – | –
COc1ccc(Nc2nnc(Cc3ccncc3)c3ccc(NC(C)=O)cc23)cc1.Cl | 160 to 163 °C | – | –
COc1cccc(Nc2nnc(Cc3ccncc3)c3ccc(NC(C)=O)cc23)c1.Cl | 156 to 159 °C | – | –
CC(=O)Nc1ccc2c(Cc3ccncc3)nnc(Nc3ccccc3)c2c1.Cl | 162 to 166 °C | – | –
CC(C)(C)c1ccc(Nc2nnc(Cc3ccncc3)c3ccccc23)cc1.Cl.Cl | 196 to 200 °C | – | –
c1ccc(-c2ccc(Nc3nnc(Cc4ccncc4)c4ccccc34)cc2)cc1 | 189 to 191 °C | – | –
Cl.Cl.c1ccc(Nc2nnc(Cc3ccncc3)c3ccccc23)cc1 | 217 to 220 °C | – | –
CC(C)c1ccc(Nc2nnc(Cc3ccncc3)c3ccccc23)cc1 (as salt: hydrochloride) [Example 47, 1-(4-Isoprolylanilino)-4-(4-pyridylmethyl)phthalazine dihydrochloride] | > 250 °C | – | –
Cc1ccc(Nc2nnc(Cc3ccncc3)c3ccccc23)cc1O (hydrate or solvate) [Example 67B] | 192 to 195 °C | – | –
FC(F)C(F)(F)Oc1cccc(Nc2nnc(Cc3ccncc3)c3ccccc23)c1 (hydrate or solvate) [Example 67S] | 185 to 187 °C | – | –
CC(c1ccncc1)c1nnc(Nc2ccc(Cl)cc2)c2ccccc12 (racemic) [Example 64, rac 1-(4-Chloroanilino) 4-[1-(4-pyridyl)ethyl]phthalazine] | – | 0.907 µM | –
Clc1cccc(Nc2nnc(Cc3ccncc3)c3ccccc23)c1 [Example 5, 1-(3-Chloroanilino)-4-(4-pyridylmethyl)phthalazine 1,8 hydrochloride] | – | – | 0.21 µM
c1ccc(CNc2nnc(Cc3ccncc3)c3ccccc23)cc1 [Example 7, 1-Benzylamino-4-(4-pyridylmethyl)phthalazine] | 137 to 138 °C | – | 0.64 µM
COc1ccc(Nc2nnc(Cc3ccncc3)c3ccccc23)cc1 [Example 8, 1-(4-Methoxyanilino)-4-(4-pyridylmethyl)phthalazine] | 223 to 224 °C | – | 0.33 µM
c1ccc(COc2cccc(Nc3nnc(Cc4ccncc4)c4ccccc34)c2)cc1 [Example 9, 1-(3-Benzyloxyanilino)-4-(4-pyridylmethyl)phthalazine] | 142 to 143 °C | – | 0.97 µM
CC(=O)Nc1ccc(Nc2nnc(Cc3ccncc3)c3ccccc23)cc1 [Example 11, 1-(4-Acetaminoanilino)-4-(4-pyridylmethyl)phthalazine] | > 270 °C | – | –
COc1ccccc1Nc1nnc(Cc2ccncc2)c2ccccc12 [Example 14, 1-(2-Methoxyanilino)-4-(4-pyridylmethyl)phthalazine] | 190 to 191 °C | – | 0.74 µM
c1cncc(Nc2nnc(Cc3ccncc3)c3ccccc23)c1 [Example 15, 1-(3-Pyridylamino)-4-(4-pyridylmethyl)phthalazine] | 137 to 139 °C | – | –
FC(F)(F)c1ccc(Nc2nnc(Cc3ccncc3)c3ccccc23)cc1 [Example 16, 1-(4-Trifluoromethylanilino)-4-(4-pyridylmethyl)phthalazine] | 205 to 206 °C | – | 0.52 µM
Fc1ccc(Nc2nnc(Cc3ccncc3)c3ccccc23)cc1 [Example 17, 1-(4-Fluoroanilino)-4-(4-pyridylmethyl)phthalazine] | 129 to 131 °C | – | 0.29 µM
Oc1ccc(Nc2nnc(Cc3ccncc3)c3ccccc23)cc1 [Example 19, 1-(4-Hydroxyanilino)-4-(4-pyridylmethyl)phthalazine] | 239 to 241 °C | – | 0.73 µM
CS(=O)(=O)O.CS(=O)(=O)O.CS(=O)(=O)O.Nc1cccc(Nc2nnc(Cc3ccncc3)c3ccccc23)c1 [Example 20, 1-(3-Aminoanilino)-4-(4-pyridylmethyl)phthalazine trimesylate] | 249 to 251 °C | – | 0.5 µM
Clc1ccc(Nc2nnc(Cc3ccncc3)c3ccccc23)cc1Cl [Example 21, 1-(3,4-Dichloroanilino)-4-(4-pyridylmethyl)phthalazine] | 249 to 250 °C | – | 0.41 µM

SMILES | melting point | IC50 [1, 2] | IC50 [1]
Brc1ccc(Nc2nnc(Cc3ccncc3)c3ccccc23)cc1 [Example 22, 1-(4-Bromoanilino)-4-(4-pyridylmethyl)phthalazine] | 201 to 202 °C | – | 0.18 µM
COc1ccc(Nc2nnc(Cc3ccncc3)c3ccccc23)cc1Cl [Example 23, 1-(3-Chloro-4-methoxyanilino)-4-(4-pydridylmethyl)phthalazine] | 195 to 197 °C | – | 0.515 µM
N#Cc1ccc(Nc2nnc(Cc3ccncc3)c3ccccc23)cc1 [Example 24, 1-(4-Cyanoanilino)-4-(4-pyridylmethyl)phthalazine] | 228 to 230 °C | – | 0.666 µM
Nc1ccc2c(Cc3ccncc3)nnc(Nc3ccc(Cl)cc3)c2c1 [Example 32A, 7-Amino-1-(4-chloroanilino)-4-(4-pyridylmethyl)phthalazine hydrochloride] | – | – | 0.042 µM
Nc1ccc2c(Cc3ccncc3)nnc(Nc3cccc(Cl)c3)c2c1 [Example 32B] | – | – | 1 µM
Cc1ccc(Nc2nnc(Cc3ccncc3)c3ccc(N)cc23)cc1 [Example 32D] | – | – | 0.48 µM
COc1cccc(Nc2nnc(Cc3ccncc3)c3ccc(N)cc23)c1 [Example 32F] | – | – | 0.793 µM
Cc1ccc(Nc2nnc(Cc3ccncc3)c3ccccc23)cc1 [Example 37, 1-(4-Methylanilino)-4-(4-pyridylmethyl)phthalazine] | 152 to 153 °C | – | 0.154 µM
Fc1ccc(Nc2nnc(Cc3ccncc3)c3ccccc23)cc1Cl [Example 42, 1-(3-Chloro-4-fluoroanilino)-4-(4-pyridylmethyl)phthalazine] | 185 to 187 °C | – | 0.211 µM
Cc1cccc(Nc2nnc(Cc3ccncc3)c3ccccc23)c1 [Example 43, 1-(3-Methylanilino)-4-(4-pyridylmethyl)phthalazine] | 141 to 143 °C | – | 9.07 µM
CCc1ccc(Nc2nnc(Cc3ccncc3)c3ccccc23)cc1 [Example 44A, 1-(4-Ethylanilino)-4-(4-pyridylmethyl)phthalazine] | 163 to 164 °C | – | 0.277 µM
CCCc1ccc(Nc2nnc(Cc3ccncc3)c3ccccc23)cc1 [Example 44B, 1-(4-Propylanilino)-4-(4-pyridylmethyl)phthalazine] | 180 to 181 °C | – | 0.234 µM
Cc1ccc(Nc2nnc(Cc3ccncc3)c3ccccc23)cc1F [Example 44C, 1-(3-Fluoro-4-methylanilino)-4-(4-pyridylmethyl)phthalazine] | 210 to 212 °C | – | 0.042 µM
CC(C)c1ccc(Nc2nnc(Cc3ccncc3)c3ccccc23)cc1 [Example 47, 1-(4-Isoprolylanilino)-4-(4-pyridylmethyl)phthalazine dihydrochloride] | – | – | 0.188 µM
Clc1ccc(Nc2nnc(NCc3ccncc3)c3ccccc23)cc1 [Example 49, 1-(4-Chloroanilino)-4-(4-pyridylmethylamino)phthalazine] | 233 to 236 °C | – | –
COc1cc(Nc2nnc(Cc3ccncc3)c3ccccc23)cc(OC)c1OC [Example 54, 1-(3,4,5-Trimethoxyanilino)-4-(4-pyridylmethyl)phthalazine] | 110 to 111 °C | – | –
[O-][n+]1nc(Nc2ccc(Cl)cc2)c2ccccc2c1Cc1ccncc1 [Example 55, 1-(4-Chloroanilino)-4-(4-pyridylmethyl)phthalazine-3-oxide] | 226 to 228 °C | – | –
Cc1ccc(Nc2nnc(Cc3ccncc3)c3ccccc23)cc1O [Example 67B] | – | – | 0.335 µM
CC(C)c1cccc(Nc2nnc(Cc3ccncc3)c3ccccc23)c1 [Example 67Q] | – | – | 0.328 µM
FC(F)C(F)(F)Oc1cccc(Nc2nnc(Cc3ccncc3)c3ccccc23)c1 [Example 67S] | – | – | 1.2 µM
CC(=O)c1cccc(Nc2nnc(Cc3ccncc3)c3ccccc23)c1 [Example 70A, 1-(3-Acetylanilino)-4-(4-pyridylmethyl)phthalazine] | – | – | 1 µM
CC1(c2ccc(Nc3nnc(Cc4ccncc4)c4ccccc34)cc2)OCCO1 [Example 70B, 1-[(2′-methyl-1′,3′-dioxolan-2′-yl)-anilino]-4-(4-pyridylmethyl)phthalazine] | – | 1 µM | –
Clc1cccc(Oc2nnc(Cc3ccncc3)c3ccccc23)c1 [Example 72A, 1-(3-Chlorophenoxy)-4-(4-pyridylmethyl)phthalazine] | – | – | 1.27 µM
Cc1c(Cc2ccncc2)nnc(Nc2ccc(Cl)cc2)c1C [Example 82A, 3-(4-chloroanilino)-4,5-dimethyl-6-(pyridin-4-yl)methylpyridazine] | – | – | 0.478 µM
Cc1ccc(Nc2nnc(Cc3ccncc3)c(C)c2C)cc1 [Example 82B, 3-(4-methylanilino)-4,5-dimethyl-6-(pyridin-4-yl)methylpyridazine] | – | – | 0.774 µM
Cc1cccc(Nc2nnc(Cc3ccncc3)c(C)c2C)c1 [Example 82E, 3-(3-methylanilino)-4,5-dimethyl-6-(pyridin-4-yl)methylpyridazine] | – | – | 2.5 µM
